Assay [1] has as its target T1, Histone deacetylase 1 (Homo sapiens, UniProt Q13547). The assay is described as follows: Inhibition of recombinant human HDAC1 using Cbz-Lys(TFAc)-AMC as substrate by fluorometric analysis.
Assay [2] addresses T1, Histone deacetylase 1. The assay can be described thus: Inhibition of recombinant human HDAC1 using Ac-RHKK(Ac)-ACC as substrate by fluorometric analysis.
Assay [3] has as its target T2, Protein deacetylase HDAC6 (Homo sapiens) (UniProt Q9UBN7).
T2 sequence (whole entry): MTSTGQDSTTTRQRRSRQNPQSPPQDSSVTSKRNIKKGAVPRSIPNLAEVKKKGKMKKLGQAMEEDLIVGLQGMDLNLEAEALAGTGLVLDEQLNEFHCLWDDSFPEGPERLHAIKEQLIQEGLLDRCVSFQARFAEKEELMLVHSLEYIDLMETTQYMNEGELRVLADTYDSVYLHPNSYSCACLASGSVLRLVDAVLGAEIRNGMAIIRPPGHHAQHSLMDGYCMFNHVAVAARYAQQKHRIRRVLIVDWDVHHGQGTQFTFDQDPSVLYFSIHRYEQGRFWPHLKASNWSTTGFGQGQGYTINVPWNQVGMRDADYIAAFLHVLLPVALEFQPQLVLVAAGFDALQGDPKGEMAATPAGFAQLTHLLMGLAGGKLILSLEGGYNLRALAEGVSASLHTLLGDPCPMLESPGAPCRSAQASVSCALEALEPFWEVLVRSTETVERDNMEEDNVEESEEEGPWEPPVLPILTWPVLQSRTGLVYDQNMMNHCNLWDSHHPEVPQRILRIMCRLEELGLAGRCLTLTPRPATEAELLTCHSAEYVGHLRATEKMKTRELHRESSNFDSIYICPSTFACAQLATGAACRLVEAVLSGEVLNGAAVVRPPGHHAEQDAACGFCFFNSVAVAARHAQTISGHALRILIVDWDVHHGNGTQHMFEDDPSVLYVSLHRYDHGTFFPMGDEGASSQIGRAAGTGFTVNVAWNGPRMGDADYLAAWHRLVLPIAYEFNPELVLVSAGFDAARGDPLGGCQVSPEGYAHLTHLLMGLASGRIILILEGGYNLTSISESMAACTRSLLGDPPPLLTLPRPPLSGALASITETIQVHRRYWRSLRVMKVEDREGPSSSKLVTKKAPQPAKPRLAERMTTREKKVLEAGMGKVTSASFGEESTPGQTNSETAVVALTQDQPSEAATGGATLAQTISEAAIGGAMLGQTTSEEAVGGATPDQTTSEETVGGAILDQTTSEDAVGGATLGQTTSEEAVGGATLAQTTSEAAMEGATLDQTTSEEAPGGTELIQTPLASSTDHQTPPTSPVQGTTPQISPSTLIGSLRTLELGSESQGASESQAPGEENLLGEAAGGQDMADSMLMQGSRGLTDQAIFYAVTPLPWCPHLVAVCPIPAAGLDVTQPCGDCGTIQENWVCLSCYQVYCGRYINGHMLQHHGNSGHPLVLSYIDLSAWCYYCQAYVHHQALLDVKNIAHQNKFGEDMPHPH
The assay is described as follows: Inhibition of recombinant human HDAC6 at 1 uM using Boc-Lys(Ac)-AMC as substrate by fluorometric analysis.

In assay [4] the target is T3, Protein deacetylase HDAC6 (Homo sapiens, UniProt Q9UBN7).
T3 sequence (Q9UBN7 whole entry): T2 sequence (whole entry)
The assay can be described thus: Inhibition of recombinant human HDAC6 using Boc-Lys(Ac)-AMC as substrate by fluorometric analysis.

In assay [5] the target is T3, Protein deacetylase HDAC6. The assay can be described thus: Inhibition of recombinant human HDAC6 using Ac-RHKK(Ac)-ACC as substrate by fluorometric analysis.
Assay [6] has as its target T1, Histone deacetylase 1. The assay can be described thus: Inhibition of human HDAC1 in PMA-differentiated THP1 cells assessed as hyperacetylation of histone H3 after 4 hrs by Western blotting. The format is cell-based. Particulars: THP-1. In general terms: A western blot detects proteins with antibodies after separation by electrophoresis.
Another assay is filed under the species Homo sapiens. The assay can be described thus: Selectivity index, IC50 for recombinant human HDAC6 to IC50 for recombinant human HDAC1.

One may read the pIC50 as the negative decadic logarithm of the IC50, by convention in mol/L. What is called inhibition is the change of the read-out against control, counted positive when it falls.

The structures appear in SMILES notation. pIC50: −log10 of the molar value. The source made the active and inactive calls. The calls are words filed in the database; no cut-off is given here.

T1 sequence (Q13547 whole entry): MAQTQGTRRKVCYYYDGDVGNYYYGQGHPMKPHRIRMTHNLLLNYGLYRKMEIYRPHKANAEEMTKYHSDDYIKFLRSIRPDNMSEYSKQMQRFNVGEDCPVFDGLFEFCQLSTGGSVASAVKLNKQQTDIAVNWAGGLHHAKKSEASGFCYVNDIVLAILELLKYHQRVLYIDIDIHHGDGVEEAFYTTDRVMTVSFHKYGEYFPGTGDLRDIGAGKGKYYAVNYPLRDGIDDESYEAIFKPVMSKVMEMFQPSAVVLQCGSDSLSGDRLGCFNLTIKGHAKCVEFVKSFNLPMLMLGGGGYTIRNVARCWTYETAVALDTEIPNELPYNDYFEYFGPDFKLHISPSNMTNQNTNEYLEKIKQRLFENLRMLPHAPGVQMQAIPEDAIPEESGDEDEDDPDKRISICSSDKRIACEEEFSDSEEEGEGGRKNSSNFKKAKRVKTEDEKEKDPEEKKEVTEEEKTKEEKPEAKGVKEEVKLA

As for `CC(C)(C)OC(=O)Nc1ccc(-c2cc(C(=O)NCCCCCCC(=O)NO)no2)cc1`, the pIC50 is 6.47 at Histone deacetylase 1 [1] and 5.45 at Histone deacetylase 1 [2].

For `CC(C)(C)OC(=O)N[C@@H](CCCCCCS)C(=O)NC1CCCC1`, the inhibition in assay [3] stood at 60%.

Take `COC(=O)CCCCC[C@H](NC(=O)OC(C)(C)C)C(=O)NC1CCCC1`: the inhibition in assay [3] turned out to be 60%.

Consider `CC(C)(C)OC(=O)N[C@@H](CCCCCCO)C(=O)NC1CCCC1`, for which, in assay [3], the inhibition came out at 3%.

As for `COC(=O)CCCCC[C@H](NC(=O)OCc1ccccc1)C(=O)NC1CCCC1`, in assay [3], the inhibition turned out to be 65%.

Consider `CC(C)(C)OC(=O)N[C@@H](CCCCCO)C(=O)NC1CCCC1`, for which the negative-log IC50 (pIC50) was < 5.00 at Histone deacetylase 1 [1] and 6.62 in assay [4]. Besides, the inhibition in assay [3] came out at 80%.

Consider `CC(C)(C)OC(=O)N[C@@H](CCCCCC(=O)O)C(=O)NC1CCCC1`, for which, in assay [3], the inhibition came out at 45%.

For the compound `CN(C)c1ccc(C(=O)N[C@@H](CCCCCC(=O)NO)C(=O)Nc2cccc3cccnc23)cc1`, the pIC50 is 7.68 at Histone deacetylase 1 [1] and 6.03 in assay [4].

As to `O=C(CCCCC[C@H](NC(=O)c1cc2ccccc2[nH]1)C(=O)Nc1cccc2cccnc12)NO`, the pIC50 on Histone deacetylase 1 [1] was 7.32; in assay [4], 6.97.

In the case of `CC(C)(C)OC(=O)N[C@@H](CCCCO)C(=O)NC1CCCC1`, in assay [3], the inhibition worked out at 50%.

Consider `CC(C)(C)OC(=O)N[C@@H](CCCCCC(=O)NO)C(=O)NC1CCCC1`, for which the pIC50 on Histone deacetylase 1 [1] is 5.85; on Histone deacetylase 1 [2] it was 5.45; in assay [5] it was 7.57; in assay [4] it was 7.59. Besides, in assay [3], the inhibition worked out at 99%.

`O=C(O)CCCCC[C@H](NC(=O)OCc1ccccc1)C(=O)NC1CCCC1`: the inhibition in assay [3] turned out to be 40%.

As for `CC(C)(C)OC(=O)N[C@@H](CCCCCS)C(=O)NC1CCCC1`, the figures for the pIC50 (at Histone deacetylase 1 [1]; in assay [4]) were 5.76 and 7.27, respectively. In addition, in assay [3], the inhibition amounted to 98%. Also, the inhibition entry on Histone deacetylase 1 [6] is “Active”.

In the case of `COC(=O)CCCC[C@H](NC(=O)OC(C)(C)C)C(=O)NC1CCCC1`, the inhibition in assay [3] worked out at 40%.

Consider `O=C(O)CCCC[C@H](NC(=O)OCc1ccccc1)C(=O)NC1CCCC1`, for which the inhibition in assay [3] turned out to be 20%.

Take `O=C(CCCCCn1c2ccccc2c2ccccc21)NO`: the pIC50 at Histone deacetylase 1 [2] was 5.51; in assay [5] it was 7.39. In the assay filed under Homo sapiens, the Ratio IC50 came out at 74.

The record behind these values is ChEMBL document CHEMBL1287669, “Inhibitors selective for HDAC6 in enzymes and cells” (Bioorg Med Chem Lett, 2010).
